Where a name gives a salt, the structure may show the parent alone. Read-outs that look alike come from different tables or passages of the source.
Legend:
Experiment in all cases: AK assay 384-well format, Prestwick library screening
E. faecium = format: cell-based, Enterococcus faecium; conditions: 50 μM final drug concentration; for fold induction at 50 µM: Enterococcus faecium, 3 h
[1] = tested on: S. aureus strain USA300-0114; format: cell-based, Staphylococcus aureus; conditions: 50 μM final drug concentration; for fold induction at 50 µM: Staphylococcus aureus, USA300, 3 h
K. pneumoniae = format: cell-based, Klebsiella pneumoniae; conditions: 50 μM final drug concentration; for fold induction at 50 µM: Klebsiella pneumoniae, 3 h
[2] = tested on: A. baumannii strain 98-37-09; format: cell-based, Acinetobacter baumannii; conditions: 50 μM final drug concentration; for fold induction at 50 µM: Acinetobacter baumannii, 983709, 3 h
P. aeruginosa = format: cell-based, Pseudomonas aeruginosa; conditions: 50 μM final drug concentration; for fold induction at 50 µM: Pseudomonas aeruginosa, 3 h
E. cloacae = format: cell-based, Enterobacter cloacae; conditions: 50 μM final drug concentration; for fold induction at 50 µM: Enterobacter cloacae, 3 h
E. coli = format: cell-based, Escherichia coli; conditions: 50 μM final drug concentration; for fold induction at 50 µM: Escherichia coli, 3 h
[3] = planktonic, cutoff for positive-scoring molecules 3-fold increase, read-out: AK-based Prestwick Library Screening Results, E. faecium (fold increase in extracellular AK activity)
[4] = planktonic, cutoff for positive-scoring molecules 3-fold increase, read-out: AK-based Prestwick Library Screening Results, S. aureus (fold increase in extracellular AK activity)
[5] = planktonic, cutoff for positive-scoring molecules 3-fold increase, read-out: AK-based Prestwick Library Screening Results, K. pneumoniae (fold increase in extracellular AK activity)
[6] = planktonic, cutoff for positive-scoring molecules 3-fold increase, read-out: AK-based Prestwick Library Screening Results, A. baumannii (fold increase in extracellular AK activity)
[7] = planktonic, cutoff for positive-scoring molecules 3-fold increase, read-out: AK-based Prestwick Library Screening Results, P. aeruginosa (fold increase in extracellular AK activity)
[8] = planktonic, cutoff for positive-scoring molecules 3-fold increase, read-out: AK-based Prestwick Library Screening Results, E. cloacae (fold increase in extracellular AK activity)
[9] = planktonic, cutoff for positive-scoring molecules 3-fold increase, read-out: AK-based Prestwick Library Screening Results, E. coli (fold increase in extracellular AK activity)
[10] = cutoff for positive-scoring molecules 3-fold increase, read-out: AK-based Prestwick Library Screening Results, E. faecium (fold increase in extracellular AK activity)
[11] = cutoff for positive-scoring molecules 3-fold increase, read-out: AK-based Prestwick Library Screening Results, S. aureus (fold increase in extracellular AK activity)
[12] = cutoff for positive-scoring molecules 3-fold increase, read-out: AK-based Prestwick Library Screening Results, K. pneumoniae (fold increase in extracellular AK activity)
[13] = cutoff for positive-scoring molecules 3-fold increase, read-out: AK-based Prestwick Library Screening Results, A. baumannii (fold increase in extracellular AK activity)
[14] = cutoff for positive-scoring molecules 3-fold increase, read-out: AK-based Prestwick Library Screening Results, P. aeruginosa (fold increase in extracellular AK activity)
[15] = cutoff for positive-scoring molecules 3-fold increase, read-out: AK-based Prestwick Library Screening Results, E. cloacae (fold increase in extracellular AK activity)
[16] = cutoff for positive-scoring molecules 3-fold increase, read-out: AK-based Prestwick Library Screening Results, E. coli (fold increase in extracellular AK activity)
[17] = cutoff for positive-scoring molecules 3-fold increase

CCc1cc(C(N)=S)ccn1 [Ethionamide]
fold induction at 50 µM (E. faecium; planktonic, cutoff for positive 3-fold increase, read-out: AK-based Prestwick Library Screening Results, E. faecium (fold increase in extracellular AK activity)): 1 | fold induction at 50 µM ([1]; planktonic, cutoff for positive 3-fold increase, read-out: AK-based Prestwick Library Screening Results, S. aureus (fold increase in extracellular AK activity)): 1.3 | fold induction at 50 µM (K. pneumoniae; planktonic, cutoff for positive 3-fold increase, read-out: AK-based Prestwick Library Screening Results, K. pneumoniae (fold increase in extracellular AK activity)): 1 | fold induction at 50 µM ([2]; planktonic, cutoff for positive 3-fold increase, read-out: AK-based Prestwick Library Screening Results, A. baumannii (fold increase in extracellular AK activity)): 1.2 | fold induction at 50 µM (P. aeruginosa; planktonic, cutoff for positive 3-fold increase, read-out: AK-based Prestwick Library Screening Results, P. aeruginosa (fold increase in extracellular AK activity)): 1.1 | fold induction at 50 µM (E. cloacae; planktonic, cutoff for positive 3-fold increase, read-out: AK-based Prestwick Library Screening Results, E. cloacae (fold increase in extracellular AK activity)): 1.4 | fold induction at 50 µM (E. coli; planktonic, cutoff for positive 3-fold increase, read-out: AK-based Prestwick Library Screening Results, E. coli (fold increase in extracellular AK activity)): 1.1

C#C[C@]1(O)CC[C@H]2[C@@H]3CCC4=CC(=O)CC[C@]4(C)[C@H]3CC[C@@]21C [Ethisterone]
fold induction at 50 µM (E. faecium; 384-well format, […], read-out: AK-based Prestwick Library Screening Results, E. faecium (increase in extracellular AK activity)): 0.9 | fold induction at 50 µM ([1]; 384-well format, […], read-out: AK-based Prestwick Library Screening Results, S. aureus (increase in extracellular AK activity)): 0.8 | fold induction at 50 µM (K. pneumoniae; 384-well format, […], read-out: AK-based Prestwick Library Screening Results, K. pneumoniae (increase in extracellular AK activity)): 0.8 | fold induction at 50 µM ([2]; 384-well format, […], read-out: AK-based Prestwick Library Screening Results, A. baumannii (increase in extracellular AK activity)): 0.9 | fold induction at 50 µM (P. aeruginosa; 384-well format, […], read-out: AK-based Prestwick Library Screening Results, P. aeruginosa (increase in extracellular AK activity)): 1 | fold induction at 50 µM (E. cloacae; 384-well format, […], read-out: AK-based Prestwick Library Screening Results, E. cloacae (increase in extracellular AK activity)): 1.1 | fold induction at 50 µM (E. coli; 384-well format, […], read-out: AK-based Prestwick Library Screening Results, E. coli (increase in extracellular AK activity)): 1

CCN(CC)C(C)CN1c2ccccc2Sc2ccccc21 (stereo not drawn) [Ethopropazine hydrochloride]
fold induction at 50 µM (E. faecium; [3]): 0.9 | fold induction at 50 µM [1, 4]: 0.7 | fold induction at 50 µM (K. pneumoniae; [5]): 0.8 | fold induction at 50 µM [2, 6]: 1 | fold induction at 50 µM (P. aeruginosa; [7]): 1 | fold induction at 50 µM (E. cloacae; [8]): 1.3 | fold induction at 50 µM (E. coli; [9]): 0.9

CCC1(C)CC(=O)NC1=O (stereo not drawn) [Ethosuximide]
fold induction at 50 µM (E. faecium; 384-well format, cutoff for positive-scoring molecules 3-fold increase, read-out: AK-based Prestwick Library Screening Results, E. faecium (increase in extracellular AK activity)): 0.9 | fold induction at 50 µM ([1]; 384-well format, cutoff for positive-scoring molecules 3-fold increase, read-out: AK-based Prestwick Library Screening Results, S. aureus (increase in extracellular AK activity)): 0.5 | fold induction at 50 µM (K. pneumoniae; 384-well format, cutoff for positive-scoring molecules 3-fold increase, read-out: AK-based Prestwick Library Screening Results, K. pneumoniae (increase in extracellular AK activity)): 0.6 | fold induction at 50 µM ([2]; 384-well format, cutoff for positive-scoring molecules 3-fold increase, read-out: AK-based Prestwick Library Screening Results, A. baumannii (increase in extracellular AK activity)): 0.5 | fold induction at 50 µM (P. aeruginosa; 384-well format, cutoff for positive-scoring molecules 3-fold increase, read-out: AK-based Prestwick Library Screening Results, P. aeruginosa (increase in extracellular AK activity)): 0.5 | fold induction at 50 µM (E. cloacae; 384-well format, cutoff for positive-scoring molecules 3-fold increase, read-out: AK-based Prestwick Library Screening Results, E. cloacae (increase in extracellular AK activity)): 0.6 | fold induction at 50 µM (E. coli; 384-well format, cutoff for positive-scoring molecules 3-fold increase, read-out: AK-based Prestwick Library Screening Results, E. coli (increase in extracellular AK activity)): 0.6

CCN1C(=O)NC(c2ccccc2)C1=O (stereo not drawn) [Ethotoin]
fold induction at 50 µM (E. faecium; [10]): 1 | fold induction at 50 µM [1, 11]: 1.2 | fold induction at 50 µM (K. pneumoniae; [12]): 1 | fold induction at 50 µM [2, 13]: 1.1 | fold induction at 50 µM (P. aeruginosa; [14]): 0.9 | fold induction at 50 µM (E. cloacae; [15]): 1.6 | fold induction at 50 µM (E. coli; [16]): 1.2

CCOc1ccc2c(c1)C(C)=CC(C)(C)N2 [Ethoxyquin]
fold induction at 50 µM (E. faecium; [3]): 0.9 | fold induction at 50 µM [1, 4]: 1.1 | fold induction at 50 µM (K. pneumoniae; [5]): 0.9 | fold induction at 50 µM [2, 6]: 0.9 | fold induction at 50 µM (P. aeruginosa; [7]): 1.1 | fold induction at 50 µM (E. cloacae; [8]): 1.4 | fold induction at 50 µM (E. coli; [9]): 1.1

C#C[C@]1(OC(C)=O)CC[C@H]2[C@@H]3CCC4=C[C@@H](OC(C)=O)CC[C@@H]4[C@H]3CC[C@@]21C [Ethynodiol diacetate]
fold induction at 50 µM (E. faecium; [3]): 0.9 | fold induction at 50 µM [1, 4]: 0.5 | fold induction at 50 µM (K. pneumoniae; [5]): 0.7 | fold induction at 50 µM [2, 6]: 0.9 | fold induction at 50 µM (P. aeruginosa; [7]): 0.9 | fold induction at 50 µM (E. cloacae; [8]): 1.1 | fold induction at 50 µM (E. coli; [9]): 0.8

C#C[C@]1(O)CC[C@H]2[C@@H]3CCc4cc(OC)ccc4[C@H]3CC[C@@]21C [Ethynylestradiol 3-methyl ether]
AK-based Prestwick Library Screening Results, E. faecium (fold increase in extracellular AK activity) (E. faecium; [17]): 0.9 | AK-based Prestwick Library Screening Results, S. aureus (fold increase in extracellular AK activity) [1, 17]: 0.8 | AK-based Prestwick Library Screening Results, K. pneumoniae (fold increase in extracellular AK activity) (K. pneumoniae; [17]): 0.8 | AK-based Prestwick Library Screening Results, A. baumannii (fold increase in extracellular AK activity) [2, 17]: 1.1 | AK-based Prestwick Library Screening Results, P. aeruginosa (fold increase in extracellular AK activity) (P. aeruginosa; [17]): 1.1 | AK-based Prestwick Library Screening Results, E. cloacae (fold increase in extracellular AK activity) (E. cloacae; [17]): 1.5 | AK-based Prestwick Library Screening Results, E. coli (fold increase in extracellular AK activity) (E. coli; [17]): 1.2

CC(O)(P(=O)(O)O)P(=O)(O)O [Etidronic acid, disodium salt]
fold induction at 50 µM (E. faecium; [10]): 1 | fold induction at 50 µM [1, 11]: 1.2 | fold induction at 50 µM (K. pneumoniae; [12]): 1 | fold induction at 50 µM [2, 13]: 1.2 | fold induction at 50 µM (P. aeruginosa; [14]): 1.1 | fold induction at 50 µM (E. cloacae; [15]): 1.4 | fold induction at 50 µM (E. coli; [16]): 1.3

— patent publication US10004701B2, “Methods and compositions for treating infection” (UNIVERSITY OF ROCHESTER, priority 2012, dated 2018)
